Assay results reported in publication PMC5571359, “Screening the Medicines for Malaria Venture Pathogen Box across Multiple Pathogens Reclassifies Starting Points for Open-Source Drug Discovery” (Antimicrobial Agents and Chemotherapy, 2017).
Read-outs that look alike come from different tables or passages of the source.

Key:
[1] = test system: 3T3 host cells; experiment: T. cruzi assay, activity against 3T3 host cells; assay type: cell-based; settings: reference compound set; for IC50: IA = inactive at 16.4 μM
Protocol: page 4: […] Puromycin, 71 chloroquine, artesunate, DHA, pyronaridine and pyrimethamine were also tested in 72 IC50 format to act as internal reference compounds. 73 74 Intracellular anti-Trypanosoma cruzi Assay Protocol 75 The host cell cytoplasm, in which the parasite resides, is identified by the fluorescent 76 marker, HCS CellMask Green. Parasite and host cell nuclei are detected with the 77 fluorescent DNA intercalator, Hoechst 33342. The Opera® High Content Screening 78 System is used to take images of wells and a spot detection algorithm is used to 79 identify parasites within the cytoplasm. 80 81 Briefly, 1x 10^3 3T3 cells were added to collagen coated 384-well plates and following 82 24 hrs incubation at 37 °C, a multiplicity of infection (MOI) of 5:1 parasite: host cells 83 were added to the plate using a Multidrop liquid handler. Following additional 24 hrs 84 incubation, extracellular parasites were washed from the plates and RPMI with no […] 86 added to all wells. The final volume of media in the primary screening assay, before 87 addition of compound, was modified slightly to 55 µL. One µL of compounds, provided 88 by Compounds Australia, were diluted by the addition of 25 µL of sterile water. This […] 91 donovani). Five microliters of this dilution was added to assay plates. The final […] The final concentrations of compounds in the […] Following 48 hrs incubation in the presence 97 of compounds, wells were fixed, stained and read on the Opera® High Content 98 Screening System to assess compound activity. 99 The Z′-factor, as a measure of assay reproducibility, was determined from a plate […] The positive control used to calculate activity against […] To 103 assess the sensitivity of the T. cruzi assay, activity of the reference compounds 104 benznidazole, NFX, posaconazole and puromycin were determined. […] 108 resazurin as a measure of parasite viability. 109 T. b. brucei trypanosomes were cultured in vitro in HM1-9 medium supplemented with […] Fifty-five µL of logarithmic phase […] 112 incubated for 24 hrs at 37°C /5% CO2. Compounds were subsequently added to the […] Following […] 116 37°C / 5% CO2 followed by 22 hrs at room temperature. […] The percent

[2] = test system: T. cruzi intracellular amastigotes; experiment: Intracellular anti-Trypanosoma cruzi image-based assay (amastigotes); assay type: cell-based; settings: Trypanosoma cruzi; for Emax: read-out: T. cruzi Emax (maximal % inhibition plateau in dose response curve); for inhibition at 16.4 µM: read-out: percent inhibition at the top screening dose, T. cruzi intracellular amastigotes
[3] = test system: NF54-pfs16-LUC-GFP stage IV gametocytes; experiment: Plasmodium falciparum late stage gametocyte (LSG) image-based assay; assay type: cell-based; settings: Plasmodium falciparum; for inhibition at 20 µM: NF54, read-out: percent inhibition at the top screening dose, P. falciparum NF54 LSG; for IC50: NF54, read-out: IC50 P. falciparum NF54 LSG, reference compound set, 11-point dose response, IA = inactive at 20 μM
[4] = test system: T. b. brucei 427 bloodstream trypanosomes; experiment: T. b. brucei resazurin viability assay; assay type: cell-based, Trypanosoma brucei brucei; settings: Trypanosoma brucei; for IC50: read-out: IC50 T. brucei brucei trypomastigotes; for inhibition at 20 µM: read-out: percent inhibition at the top screening dose, T. brucei brucei
[5] = test system: Plasmodium falciparum 3D7 asexual blood stage; experiment: microbe, parasite or virus in culture; settings: for inhibition at 20 µM: 3D7, read-out: percent inhibition at the top screening dose, P. falciparum 3D7 ABS
[6] = test system: L. donovani MHOM/IN/80/DD8 intracellular amastigotes; experiment: Leishmania donovani intracellular amastigote assay in THP-1 cells; assay type: cell-based; settings: for IC50 / inhibition at 20 µM: Leishmania donovani; for inhibition at 20 µM: THP-1
[7] = reference compound set, IA = inactive at 16.4 μM, read-out: IC50 T. cruzi intracellular amastigotes
[8] = reference compound set, IA = inactive at 20 μM
[9] = THP-1, read-out: IC50 L. donovani n = 1, reference compound set, first test, IA = inactive at 20 μM
[10] = THP-1, read-out: IC50 L. donovani n = 2, reference compound set, second test, IA = inactive at 20 μM
[11] = 3D7, read-out: IC50 P. falciparum 3D7 ABS
[12] = reference compound set, first test, 20 μM, read-out: percent inhibition at the top screening dose, L. donovani n = 1
[13] = reference compound set, second test, 20 μM, read-out: percent inhibition at the top screening dose, L. donovani n = 2
[14] = in-house control stock, not the PBox sample, read-out: IC50 of standard in-house assay control, T. cruzi amastigotes

Structure (SMILES)	IC50 [1]	IC50 [2, 7]	inhibition at 20 µM [3]	IC50 [4, 8]	inhibition at 20 µM [5]	IC50 [6, 9]	IC50 [6, 10]	IC50 [3]	IC50 [5, 11]	IC50 ([6]; THP-1, in-house control stock, not the PBox sample, two tests, read-out: IC50 of standard in-house assay control, L. donovani)	inhibition at 20 µM [6, 12]	activity against L. donovani at 20 μM ([6]; PBox sample, 20 μM)	inhibition at 20 µM ([4]; reference compound set)	Emax ([2]; reference compound set)	IC50 ([5]; 3D7, read-out: IC50 P. falciparum 3D7 ABS, reference compound set, 11-point dose response, IA = inactive at 20 μM)	inhibition at 20 µM [6, 13]	IC50 [2, 14]	IC50 [4]	inhibition at 16.4 µM ([1]; 16.4 μM, read-out: percent inhibition at the top screening dose, 3T3 host cells)	inhibition at 16.4 µM ([2]; reference compound set)
C[C@H]1c2cccc(O)c2C(=O)C2=C(O)[C@]3(O)C(=O)C(C(N)=O)=C(O)[C@@H](N(C)C)[C@@H]3[C@@H](O)[C@@H]21 [Doxycycline, reference compound]	> 16.4 µM	> 16.4 µM	77%	> 20 µM	90%	> 20 µM	> 20 µM													
COC(=O)Nc1nc2ccc(C(=O)c3ccccc3)cc2[nH]1 [Mebendazole, reference compound]	> 16.4 µM	> 16.4 µM		> 20 µM		> 20 µM	> 20 µM	> 20 µM	> 20 µM											
C[C@@H]1[C@H](O)[C@@H](C)/C=C/C=C/C=C/C=C/C=C/C=C/C=C/[C@H](O[C@@H]2O[C@H](C)[C@@H](O)[C@H](N)[C@@H]2O)C[C@@H]2O[C@](O)(C[C@@H](O)C[C@@H](O)[C@H](O)CC[C@@H](O)C[C@@H](O)CC(=O)O[C@H]1C)C[C@H](O)[C@H]2C(=O)O [Amphotericin B]	> 16.4 µM	> 16.4 µM		> 20 µM	87%		> 20 µM	> 20 µM		0.41 µM	100%	not active								
[H]/N=C(/N)N[C@H]1[C@H](O)[C@@H](O)[C@H](O[C@@H]2O[C@@H](C)[C@](O)(C=O)[C@H]2O[C@@H]2O[C@@H](CO)[C@H](O)[C@@H](O)[C@@H]2NC)[C@@H](N/C(N)=N\[H])[C@@H]1O [Streptomycin, reference compound]	> 16.4 µM	> 16.4 µM	41%	> 20 µM		> 20 µM	> 20 µM		> 20 µM											
CC[C@@H](CO)NCCN[C@@H](CC)CO [Ethambutol, reference compound]	> 16.4 µM	> 16.4 µM	42%	> 20 µM		> 20 µM	> 20 µM		> 20 µM											
NCC[C@H](O)C(=O)N[C@@H]1C[C@H](N)[C@@H](O[C@H]2O[C@H](CN)[C@@H](O)[C@H](O)[C@H]2O)[C@H](O)[C@H]1O[C@H]1O[C@H](CO)[C@@H](O)[C@H](N)[C@H]1O [Amikacin, reference compound]	> 16.4 µM	> 16.4 µM		> 20 µM		> 20 µM	> 20 µM	> 20 µM	> 20 µM											
COc1nc2ccc(Br)cc2cc1[C@@H](c1ccccc1)[C@@](O)(CCN(C)C)c1cccc2ccccc12 [Bedaquiline, reference compound]	> 16.4 µM	> 16.4 µM	75%		91%	> 20 µM	> 20 µM						59%							
CC(C)/N=c1\cc2n(-c3ccc(Cl)cc3)c3ccccc3nc-2cc1Nc1ccc(Cl)cc1 [Clofazimine, reference compound]	> 16.4 µM	> 16.4 µM		> 20 µM	84%	> 20 µM	> 20 µM	> 20 µM												
OC(c1cc(C(F)(F)F)nc2c(C(F)(F)F)cccc12)C1CCCCN1 (centres unmarked) [Mefloquine, reference compound]	> 16.4 µM	4.7 µM		0.33 µM		5.17 µM	6.58 µM	5.61 µM						99%	< 0.016 µM					
CC(=O)Oc1ccccc1C(=O)Nc1ncc([N+](=O)[O-])s1 [Nitazoxanide, reference compound]	> 16.4 µM	> 16.4 µM						> 20 µM	> 20 µM		44%		41%			41%				
CC1CS(=O)(=O)CCN1/N=C/c1ccc([N+](=O)[O-])o1 (centres unmarked) [Nifurtimox, reference compound]	> 16.4 µM	1.42 µM	39%	5.38 µM		> 20 µM	> 20 µM		> 20 µM					100%			1.23 µM			
CC(=O)NC[C@H]1CN(c2ccc(N3CCOCC3)c(F)c2)C(=O)O1 [Linezolid, reference compound]	> 16.4 µM	> 16.4 µM		> 20 µM		> 20 µM	> 20 µM	> 20 µM	> 20 µM											
O=C(C1CCCCC1)N1CC(=O)N2CCc3ccccc3C2C1 (centres unmarked) [Praziquantel, reference compound]	> 16.4 µM	> 16.4 µM		> 20 µM		> 20 µM	> 20 µM	> 20 µM	> 20 µM											
CCN(CC)C(=O)N1CCN(C)CC1 [Diethylcarbamazine, reference compound]	> 16.4 µM	> 16.4 µM		> 20 µM		> 20 µM	> 20 µM	> 20 µM	> 20 µM											
CCCCCCCCCCCCCCCCOP(=O)([O-])OCC[N+](C)(C)C [Miltefosine, reference compound]	> 16.4 µM	> 16.4 µM		> 20 µM		11.7 µM	2.26 µM	> 20 µM	> 20 µM											
CC[C@@H]([C@H](C)O)n1ncn(-c2ccc(N3CCN(c4ccc(OC[C@@H]5CO[C@@](Cn6cncn6)(c6ccc(F)cc6F)C5)cc4)CC3)cc2)c1=O [Posaconazole, reference compound]	> 16.4 µM	0.172 µM	63%	> 20 µM					4.1 µM		64%			73%		60%	0.001 µM			
Cc1ccc(C(=O)Nc2ccc(S(=O)(=O)O)c3cc(S(=O)(=O)O)cc(S(=O)(=O)O)c23)cc1NC(=O)c1cccc(NC(=O)Nc2cccc(C(=O)Nc3cc(C(=O)Nc4ccc(S(=O)(=O)O)c5cc(S(=O)(=O)O)cc(S(=O)(=O)O)c45)ccc3C)c2)c1 [Suramin, reference compound]	> 16.4 µM	> 16.4 µM				> 20 µM	> 20 µM	> 20 µM	> 20 µM									0.11 µM		
COc1cc(NC(C)CCCN)c2ncccc2c1 (centres unmarked) [Primaquine, reference compound]			96%		91%						33%		91%			79%			73%	94%
O=C(Cn1ccnc1[N+](=O)[O-])NCc1ccccc1 [Benznidazole, reference compound]	> 16.4 µM			> 20 µM		> 20 µM	> 20 µM	> 20 µM	> 20 µM											94%
